Experimental data reported in ChEMBL document CHEMBL1134479 (J Med Chem, 2001).

Tests used:
[1] = biological target: Estrogen receptor beta (Homo sapiens, UniProt Q92731)
Description: In vitro inhibitory concentration against [3H]17-beta-estradiol binding to human estrogen receptor 2

[2] = biological target: T1, Estrogen receptor (Homo sapiens, UniProt P03372); experiment: In vitro inhibition of [3H]17-beta-estradiol binding to human estrogen receptor alpha
T1 sequence (P03372 whole entry): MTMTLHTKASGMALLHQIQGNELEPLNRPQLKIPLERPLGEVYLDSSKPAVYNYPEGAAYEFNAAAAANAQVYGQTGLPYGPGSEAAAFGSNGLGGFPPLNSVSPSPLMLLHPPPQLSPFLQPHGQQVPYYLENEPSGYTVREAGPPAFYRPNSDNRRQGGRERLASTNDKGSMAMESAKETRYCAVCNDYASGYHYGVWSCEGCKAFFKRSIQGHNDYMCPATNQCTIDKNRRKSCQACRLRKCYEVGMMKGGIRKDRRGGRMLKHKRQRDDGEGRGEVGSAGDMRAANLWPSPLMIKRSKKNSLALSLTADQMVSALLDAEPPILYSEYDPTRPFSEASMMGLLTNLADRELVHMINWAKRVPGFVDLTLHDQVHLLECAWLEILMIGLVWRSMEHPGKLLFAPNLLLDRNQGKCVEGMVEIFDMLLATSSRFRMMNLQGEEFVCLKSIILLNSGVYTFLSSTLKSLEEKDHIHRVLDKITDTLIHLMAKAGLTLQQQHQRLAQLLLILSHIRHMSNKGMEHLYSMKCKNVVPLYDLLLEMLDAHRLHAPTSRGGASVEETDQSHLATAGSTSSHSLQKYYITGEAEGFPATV

[3] = biological target: T1, Estrogen receptor; experiment: In vitro antagonist effect on estrogen receptor alpha transcriptional activation in MCF-7 cells against 10 pM 17-beta-estradiol

Chain of Estrogen receptor beta (Q92731 whole entry): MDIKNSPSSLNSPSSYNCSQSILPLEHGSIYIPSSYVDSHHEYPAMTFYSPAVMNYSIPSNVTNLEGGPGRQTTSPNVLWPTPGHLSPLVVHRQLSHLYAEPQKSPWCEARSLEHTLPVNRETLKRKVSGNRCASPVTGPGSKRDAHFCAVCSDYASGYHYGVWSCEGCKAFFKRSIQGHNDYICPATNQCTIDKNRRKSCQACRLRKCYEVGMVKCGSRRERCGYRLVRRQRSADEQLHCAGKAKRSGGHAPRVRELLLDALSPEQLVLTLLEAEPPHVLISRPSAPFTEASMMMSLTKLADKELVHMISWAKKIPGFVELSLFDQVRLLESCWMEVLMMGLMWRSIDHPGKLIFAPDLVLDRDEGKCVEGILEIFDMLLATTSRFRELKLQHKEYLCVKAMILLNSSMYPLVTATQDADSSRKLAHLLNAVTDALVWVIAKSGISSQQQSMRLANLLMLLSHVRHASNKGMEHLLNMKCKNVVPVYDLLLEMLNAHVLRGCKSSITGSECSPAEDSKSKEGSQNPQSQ

| SMILES | IC50 [1] [nM] | IC50 [2] [nM] | IC50 [3] [nM] |
| --- | --- | --- | --- |
| Cc1c(-c2ccc(O)cc2)n(Cc2ccc(OCCN3CCCCC3)cc2)c2ccc(O)cc12 [PIPENDOXIFENE] | 40 |  |  |
| Cc1c(-c2ccc(O)cc2)n(CCCCCCN2CCCC2)c2ccc(O)cc12 | 242 | 25 | 69 |
